The target of the experiment is T1, Dimer of Gag-Pol polyprotein [489-587] (Human immunodeficiency virus 1, UniProt P12497).
T1 construct: 489-587
Nature of the experiment: Protease Inhibition Assay. As to the method: The inhibitory activities of the compounds toward HIV-1 PR were determined by sodium dodecyl sulfate-polyacrylamide gel electrophoresis (SDS-PAGE) assay. The IC50 values of active compounds were determined using the partially purified protease and the synthetic substrate Ac-Ser-Gln-AsnTyr-Pro-Ile-Val-NH2.
Consider `Cc1cc(O)c(C)c(C(=O)N[C@@H](Cc2ccccc2)[C@H](O)C(=O)N2C[C@@H](Cl)C[C@H]2C(=O)NC(C)(C)C)c1` [(2S,4S)-N-tert-butyl-4-chloro-1-[(2S,3S)-2-hydroxy-3-[(3-hydroxy-2,5-dimethylphenyl)formamido]-4-phenylbutanoyl]pyrrolidine-2-carboxamide], for which the midpoint of inhibition, the IC50, lay at 1.3 nM.
As to `Cc1c(O)cc(F)cc1C(=O)N[C@@H](Cc1ccccc1)[C@H](O)C(=O)N1C[C@@H](Cl)C[C@H]1C(=O)NC(C)(C)C`, half-maximal inhibition (IC50) was put at 1.7 nM.
Take `Cc1cc(O)c(C)c(C(=O)N[C@@H](Cc2ccc3ccccc3c2)[C@H](O)C(=O)N2C[C@@H](Cl)C[C@H]2C(=O)NC(C)(C)C)c1` [(2S,4S)-N-tert-butyl-4-chloro-1-[(2S,3S)-2-hydroxy-3-[(3-hydroxy-2,5-dimethylphenyl)formamido]-4-(naphthalen-2-yl)butanoyl]pyrrolidine-2-carboxamide]: the IC50 (in general, the concentration at which inhibition is half-maximal) was 0.8 nM.
In the case of `Cc1cc(O)c(C)c(C(=O)N[C@@H](Cc2cc(F)cc(F)c2)[C@H](O)C(=O)N2C[C@@H](Cl)C[C@H]2C(=O)NC(C)(C)C)c1` [(3-Hydroxy-2,5-dimethylbenzoyl)-{2(S)-hydroxy-3(S)-amino-4-(3,5-difluoro)-phenylbutanoyl}-4(S)-Cl-Pro-NH-t-Bu] it was 1.2 nM; in that of `Cc1c(O)cccc1C(=O)N[C@@H](Cc1ccccc1F)[C@H](O)C(=O)N1C[C@@H](Cl)C[C@H]1C(=O)NC(C)(C)C` [(2S,4S)-N-tert-butyl-4-chloro-1-[(2S,3S)-4-(2-fluorophenyl)-2-hydroxy-3-[(3-hydroxy-2-methylphenyl)formamido]butanoyl]pyrrolidine-2-carboxamide], 0.7 nM.
For `Cc1c(O)cccc1C(=O)N[C@@H](Cc1ccc(F)cc1)[C@H](O)C(=O)N1C[C@@H](Cl)C[C@H]1C(=O)NC(C)(C)C` [(2S,4S)-N-tert-butyl-4-chloro-1-[(2S,3S)-4-(4-fluorophenyl)-2-hydroxy-3-[(3-hydroxy-2-methylphenyl)formamido]butanoyl]pyrrolidine-2-carboxamide], the 50% inhibitory concentration (IC50) was 0.9 nM.
The molecule `Cc1c(O)cccc1C(=O)N[C@@H](Cc1ccc(F)cc1F)[C@H](O)C(=O)N1C[C@@H](Cl)C[C@H]1C(=O)NC(C)(C)C` [(2S,4S)-N-tert-butyl-4-chloro-1-[(2S,3S)-4-(2,4-difluorophenyl)-2-hydroxy-3-[(3-hydroxy-2-methylphenyl)formamido]butanoyl]pyrrolidine-2-carboxamide] showed an IC50 of 1.6 nM.
`Cc1cc(O)c(C)c(C(=O)N[C@@H](Cc2ccc(-c3ccccc3)cc2)[C@H](O)C(=O)N2C[C@@H](Cl)C[C@H]2C(=O)NC(C)(C)C)c1` [(3-Hydroxy-2,5-dimethylbenzoyl)-{2(S)-hydroxy-3(S)-amino-4-(4-phenyl)-phenylbutanoyl}-4(S)-Cl-Pro-NH-t-Bu] came in with an IC50 of 1.3 nM.
In the case of `Cc1cc(O)c(C)c(C(=O)N[C@@H](Cc2ccc3sccc3c2)[C@H](O)C(=O)N2C[C@@H](Cl)C[C@H]2C(=O)NC(C)(C)C)c1` [(2S,4S)-1-[(2S,3S)-4-(1-benzothiophen-5-yl)-2-hydroxy-3-[(3-hydroxy-2,5-dimethylphenyl)formamido]butanoyl]-N-tert-butyl-4-chloropyrrolidine-2-carboxamide] it was 1.5 nM; in that of `Cc1c(O)cccc1C(=O)N[C@@H](Cc1ccc(C(F)(F)F)cc1)[C@H](O)C(=O)N1C[C@@H](Cl)C[C@H]1C(=O)NC(C)(C)C` [(2S,4S)-N-tert-butyl-4-chloro-1-[(2S,3S)-2-hydroxy-3-[(3-hydroxy-2-methylphenyl)formamido]-4-[4-(trifluoromethyl)phenyl]butanoyl]pyrrolidine-2-carboxamide], 0.6 nM.
On to `Cc1c(O)cccc1C(=O)N[C@@H](Cc1ccccc1)[C@H](O)C(=O)N1C[C@@H](Cl)C[C@H]1C(=O)NC(C)(C)C` [(3-Hydroxy-2-methylbenzoyl)-(2(S)-hydroxy-3(S)-amino-phenylbutanoyl)-4(S)-Cl-Pro-NH-t-Bu], for which the half-maximal inhibitory concentration (IC50) was 0.9 nM.
`Cc1cccc(C[C@H](NC(=O)c2cc(C)cc(O)c2C)[C@H](O)C(=O)N2C[C@@H](Cl)C[C@H]2C(=O)NC(C)(C)C)c1` showed an IC50 of 1.3 nM.

These data come from BindingDB's records for doi:10.1016/s0968-0896(99)00127-3 (Sankyo, 1999).
